Consider one compound from ChEMBL document CHEMBL3392976, “The discovery of novel 3-(pyrazin-2-yl)-1H-indazoles as potent pan-Pim kinase inhibitors” (Bioorg Med Chem Lett, 2015).

Series [1] is described as follows: in vivo. As to conditions: Sprague-Dawley, rat, iv, 2 mg/kg.
Series [2] in a line: in vivo. As to conditions: Sprague-Dawley, rat, plasma, po, 5 mg/kg.
The nature of series [3]: in vivo. As to conditions: Sprague-Dawley, rat, iv, 2 mg/kg. This is another data set of the same source.
The nature of series [4]: in vivo. Conditions: Sprague-Dawley, rat, iv, 2 mg/kg. This is another data set of the same source.
The nature of series [5]: in vivo. Conditions: Sprague-Dawley, rat, po, 5 mg/kg.

As a reminder, the clearance is the volume of plasma or blood freed of the substance per unit of time. A low value points to inefficient removal. The AUC is the area under the concentration-time curve, a measure of exposure. A high value points to more exposure. In general, Vd refers to a proportionality between amount in the body and measured concentration, not a real space. Higher therefore signals extensive tissue distribution. A word on the half-life: it is the time needed for the level to fall by half in the phase considered. A high value points to slow loss. Broadly, the bioavailability is dose-corrected exposure relative to a reference, in per cent. A higher bioavailability goes with much systemic uptake. As to `Fc1cccc(F)c1-c1ccc2[nH]nc(-c3cncc(O[C@H]4CNCCC45CC5)n3)c2c1`, the clearance in the series “in vivo [1]” is 1 L/h/kg. The same compound yielded an area under the curve (AUC) in “in vivo [2]” of 12.2 µM·h. This compound also yielded a Vd in the series “in vivo [3]” of 3.7 L/kg. For the same compound, the half-life in “in vivo [4]” was 2.7 h. In “in vivo [5]”, the bioavailability came out at 89%.
